Results: US20260232767A1, “INTERLEUKIN-23 RECEPTOR ANTAGONIST PEPTIDES FOR USE IN THE TREATMENT OF PSORIASIS” (Janssen Pharmaceutica NV, priority 2023, published 2026)

Tested on: subjects with moderate-to-severe plaque psoriasis
Assay: Safety, adverse events, Example 2 through Week 56
Assay type: in vivo, human
Description: The LTE safety analysis was based on randomized participants in Example who entered the present long-term extension study and received at least one dose of study intervention (including a partial dose) during the study period.

[1] = 25 mg QD, LTE Safety analysis set
[2] = 50 mg QD, Week 16 through Week 56
[3] = 50 mg QD, LTE Safety analysis set

Compound: CC(=O)NCCCC[C@@H]1NC(=O)[C@H](Cc2c[nH]c3c(C)cccc23)NC(=O)[C@H]([C@@H](C)O)NC(=O)[C@H](CC(N)=O)NC(=O)[C@@H](NC(C)=O)C(C)(C)SSC(C)(C)[C@@H](C(=O)N[C@@H](Cc2ccc(OCCN)cc2)C(=O)N[C@@H](Cc2ccc3ccccc3c2)C(=O)NC2(C(=O)N[C@@H](CCC(=O)O)C(=O)N[C@@H](CC(N)=O)C(=O)N[C@@H](Cc3cccnc3)C(=O)N(C)CC(N)=O)CCOCC2)NC1=O [IL-23 receptor antagonist peptide, Ac-[Pen]*-N-T-[W(7-Me)]-[Lys(Ac)]-[Pen]*-Phe[4-(2-aminoethoxy)]-[2-Nal]-[THP]-E-N-[3-Pal]-Sarc-NH2 (*[Pen]-[Pen]* formdisulfidebond)]
- Subjects with treatment-emergent serious AE: Neoplasms benign, malignant and unspecified (incl cysts and polyps) (25 mg QD, through Week 56): 0
- Subjects with treatment-emergent serious AE: Nervous system disorders (25 mg QD, through Week 56): 0
- Subjects with treatment-emergent serious AE: Non-cardiac chest pain (25 mg QD, through Week 56): 0
- Subjects with treatment-emergent serious AE: Psychiatric disorders (25 mg QD, through Week 56): 0
- Subjects with treatment-emergent serious AE: Respiratory, thoracic and mediastinal disorders (25 mg QD, through Week 56): 0
- Subjects with treatment-emergent serious AE: Suicide attempt (25 mg QD, through Week 56): 0
- Subjects with treatment-emergent serious AE: Tonsillar hypertrophy (25 mg QD, through Week 56): 0
- Subjects with treatment-emergent serious AE: Uterine leiomyoma (25 mg QD, through Week 56): 0
- Subjects with treatment-emergent serious AE: Ventricular dysfunction (25 mg QD, through Week 56): 0
- Suicide attempt: number of subjects (25 mg QD, through Week 56): 0
- Sunburn: number of subjects (25 mg QD, through Week 56): 0
- Thrombocytopenia: % of subjects (25 mg QD, through Week 56): (2.3%)
- Thrombocytopenia: number of subjects (25 mg QD, through Week 56): 1
- Thrombocytosis: number of subjects (25 mg QD, through Week 56): 0
- Tonsillar hypertrophy: number of subjects (25 mg QD, through Week 56): 0
- Tooth fracture: number of subjects (25 mg QD, through Week 56): 0
- Type 2 diabetes mellitus: number of subjects (25 mg QD, through Week 56): 0
- Urinary tract disorder: number of subjects (25 mg QD, through Week 56): 0
- Uterine leiomyoma: number of subjects (25 mg QD, through Week 56): 0
- Vascular disorders: number of subjects (25 mg QD, through Week 56): 0
- Ventricular dysfunction: number of subjects (25 mg QD, through Week 56): 0
- Vertigo: % of subjects (25 mg QD, through Week 56): (2.3%)
- Vertigo: number of subjects (25 mg QD, through Week 56): 1
- Vitamin D deficiency: number of subjects (25 mg QD, through Week 56): 0
- Subjects with 1 or more Serious Infections and infestations [1]: 0
- Subjects with 1 or more Serious adverse events [1]: 0
- Subjects with adverse event: Arthralgia [1]: 0
- Subjects with adverse event: Hypertension [1]: 0
- Subjects with adverse event: Influenza [1]: 0
- Subjects with adverse event: Sinusitis [1]: 0
- Subjects with adverse event: Vomiting [1]: 0
- Subjects with serious adverse event: Cerebrovascular accident [1]: 0
- Subjects with serious adverse event: Coronary artery disease [1]: 0
- Subjects with serious adverse event: Diverticulitis [1]: 0
- Subjects with serious adverse event: Foot deformity [1]: 0
- Subjects with serious adverse event: Intervertebral disc protrusion [1]: 0
- Subjects with serious adverse event: Ligament injury [1]: 0
- Subjects with serious adverse event: Non-cardiac chest pain [1]: 0
- Subjects with serious adverse event: Tonsillar hypertrophy [1]: 0
- Subjects with serious adverse event: Uterine leiomyoma [1]: 0
- Subjects with serious adverse event: Ventricular dysfunction [1]: 0
- Subjects with 1 or more treatment-emergent serious adverse events (25 mg QD, Week 16-56): 0
- Subjects with AE leading to discontinuation: Asthenia (25 mg QD, Week 16-56): 0
- Subjects with AE leading to discontinuation: Chills (25 mg QD, Week 16-56): 0
- Subjects with AE leading to discontinuation: Ear and labyrinth disorders (25 mg QD, Week 16-56): 0
- Subjects with AE leading to discontinuation: Gastrointestinal disorders (25 mg QD, Week 16-56): 0
- Subjects with AE leading to discontinuation: General disorders and administration site conditions (25 mg QD, Week 16-56): 0
- Subjects with AE leading to discontinuation: Headache (25 mg QD, Week 16-56): 0
- Subjects with AE leading to discontinuation: Insomnia (25 mg QD, Week 16-56): 0
- Subjects with AE leading to discontinuation: Nervous system disorders (25 mg QD, Week 16-56): 0
- Subjects with AE leading to discontinuation: Proctalgia (25 mg QD, Week 16-56): 0
- Subjects with AE leading to discontinuation: Psoriasis (25 mg QD, Week 16-56): 0
- Subjects with AE leading to discontinuation: Psychiatric disorders (25 mg QD, Week 16-56): 0
- Subjects with AE leading to discontinuation: Skin and subcutaneous tissue disorders (25 mg QD, Week 16-56): 0
- Subjects with AE leading to discontinuation: Vertigo (25 mg QD, Week 16-56): 0
- Subjects with AE leading to discontinuation: Vomiting (25 mg QD, Week 16-56): 0
- Subjects with COVID-19 associated AE of interest: SARS-CoV-2 test positive (25 mg QD, Week 16-56): 0
- Subjects with treatment-emergent AE: Arthralgia (25 mg QD, Week 16-56): 0
- Subjects with treatment-emergent AE: Hypertension (25 mg QD, Week 16-56): 0
- Subjects with treatment-emergent AE: Influenza (25 mg QD, Week 16-56): 0
- Subjects with treatment-emergent AE: Musculoskeletal and connective tissue disorders (25 mg QD, Week 16-56): 0
- Subjects with treatment-emergent AE: Sinusitis (25 mg QD, Week 16-56): 0
- Subjects with treatment-emergent AE: Vascular disorders (25 mg QD, Week 16-56): 0
- Subjects with treatment-emergent AE: Vomiting (25 mg QD, Week 16-56): 0
- Subjects with treatment-emergent serious AE: Cardiac disorders (25 mg QD, Week 16-56): 0
- Subjects with treatment-emergent serious AE: Cerebrovascular accident (25 mg QD, Week 16-56): 0
- Subjects with treatment-emergent serious AE: Coronary artery disease (25 mg QD, Week 16-56): 0
- Subjects with treatment-emergent serious AE: Diverticulitis (25 mg QD, Week 16-56): 0
- Subjects with treatment-emergent serious AE: Foot deformity (25 mg QD, Week 16-56): 0
- Subjects with treatment-emergent serious AE: General disorders and administration site conditions (25 mg QD, Week 16-56): 0
- Subjects with treatment-emergent serious AE: Infections and infestations (25 mg QD, Week 16-56): 0
- Subjects with treatment-emergent serious AE: Injury, poisoning and procedural complications (25 mg QD, Week 16-56): 0
- Subjects with treatment-emergent serious AE: Intervertebral disc protrusion (25 mg QD, Week 16-56): 0
- Subjects with treatment-emergent serious AE: Ligament injury (25 mg QD, Week 16-56): 0
- Subjects with treatment-emergent serious AE: Musculoskeletal and connective tissue disorders (25 mg QD, Week 16-56): 0
- Subjects with treatment-emergent serious AE: Neoplasms benign, malignant and unspecified (incl cysts and polyps) (25 mg QD, Week 16-56): 0
- Subjects with treatment-emergent serious AE: Nervous system disorders (25 mg QD, Week 16-56): 0
- Subjects with treatment-emergent serious AE: Non-cardiac chest pain (25 mg QD, Week 16-56): 0
- Subjects with treatment-emergent serious AE: Respiratory, thoracic and mediastinal disorders (25 mg QD, Week 16-56): 0
- Subjects with treatment-emergent serious AE: Tonsillar hypertrophy (25 mg QD, Week 16-56): 0
- Subjects with treatment-emergent serious AE: Uterine leiomyoma (25 mg QD, Week 16-56): 0
- Subjects with treatment-emergent serious AE: Ventricular dysfunction (25 mg QD, Week 16-56): 0
- Number of subjects with treatment-emergent AE: Cholelithiasis [2]: 0
- Number of subjects with treatment-emergent AE: Ear and labyrinth disorders [2]: 0
- Number of subjects with treatment-emergent AE: Endocrine disorders [2]: 0
- Number of subjects with treatment-emergent AE: Eye disorders [2]: 0
- Number of subjects with treatment-emergent AE: Eyelid skin dryness [2]: 0
- Number of subjects with treatment-emergent AE: Goiter [2]: 0
- Number of subjects with treatment-emergent AE: Hepatobiliary disorders [2]: 0
- Number of subjects with treatment-emergent AE: Hypertransaminasemia [2]: 0
- Number of subjects with treatment-emergent AE: Immune system disorders [2]: 1
- Number of subjects with treatment-emergent AE: Insomnia [2]: 0
- Number of subjects with treatment-emergent AE: Ocular cyst [2]: 0
- Number of subjects with treatment-emergent AE: Psychiatric disorders [2]: 0
- Number of subjects with treatment-emergent AE: Retinal vein occlusion [2]: 0
- Number of subjects with treatment-emergent AE: Seasonal allergy [2]: 1
- Number of subjects with treatment-emergent AE: Vertigo [2]: 0
- Subjects with treatment-emergent AE: Immune system disorders (%) [2]: (2.6%)
- Subjects with treatment-emergent AE: Seasonal allergy (%) [2]: (2.6%)
- Subjects who discontinued study agent because of 1 or more adverse events [3]: 0
- Subjects with 1 or more Serious Infections and infestations [3]: 0
- Subjects with adverse event: Headache [3]: 0
- Subjects with adverse event: Meniscus injury [3]: 0
- Subjects with adverse event: Vomiting [3]: 0
- Subjects with serious adverse event: Cerebrovascular accident [3]: 0
- Subjects with serious adverse event: Diverticulitis [3]: 0
- Subjects with serious adverse event: Intervertebral disc protrusion [3]: 0
- Subjects with serious adverse event: Ligament injury [3]: 0
- Subjects with serious adverse event: Tonsillar hypertrophy [3]: 0
- Subjects with serious adverse event: Uterine leiomyoma [3]: 0
- Subjects with serious adverse event: Ventricular dysfunction [3]: 0
- Subjects with 1 or more treatment-emergent adverse events leading to discontinuation of study agent (50 mg QD, Week 16-56): 0
- Subjects with AE leading to discontinuation: Alanine aminotransferase increased (50 mg QD, Week 16-56): 0
- Subjects with AE leading to discontinuation: Aspartate aminotransferase increased (50 mg QD, Week 16-56): 0
- Subjects with AE leading to discontinuation: Asthenia (50 mg QD, Week 16-56): 0
- Subjects with AE leading to discontinuation: Chills (50 mg QD, Week 16-56): 0
- Subjects with AE leading to discontinuation: Ear and labyrinth disorders (50 mg QD, Week 16-56): 0
- Subjects with AE leading to discontinuation: Gamma-glutamyltransferase increased (50 mg QD, Week 16-56): 0
- Subjects with AE leading to discontinuation: Gastrointestinal disorders (50 mg QD, Week 16-56): 0
- Subjects with AE leading to discontinuation: General disorders and administration site conditions (50 mg QD, Week 16-56): 0
- Subjects with AE leading to discontinuation: Headache (50 mg QD, Week 16-56): 0
